Our source for the Kd values is publication PMC3740200 (Dalton transactions (Cambridge, England : 2003), 2012).

By Kd is commonly meant the equilibrium constant for the complex coming apart.

One assay deals with DaCld(W227F) (Dechloromonas aromatica, UniProt Q47CX0, W261F). The assay is described as follows: Equilibrium binding of heme ligands.
Another assay concerns the target W156F DaCld (Dechloromonas aromatica, UniProt Q47CX0, W190F). The assay is described as follows: Equilibrium binding of heme ligands.
For a further assay, the target named is WT DaCld. The following applies: cited from earlier work.

Where two headings read alike, the source gives them in different places.

DaCld(W227F), sequence (Q47CX0 32-282 W261F): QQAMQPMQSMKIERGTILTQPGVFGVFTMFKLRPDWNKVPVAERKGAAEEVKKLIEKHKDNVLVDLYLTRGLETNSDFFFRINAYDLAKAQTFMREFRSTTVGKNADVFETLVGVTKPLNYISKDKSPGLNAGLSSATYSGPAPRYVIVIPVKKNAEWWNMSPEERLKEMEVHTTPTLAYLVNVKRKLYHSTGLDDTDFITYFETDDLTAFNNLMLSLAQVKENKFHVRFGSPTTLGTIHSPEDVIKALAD
W156F DaCld, sequence (Q47CX0 32-282 W190F): as the sequence (Q47CX0 32-282 W261F) above, with W159F, F230W counted along it

Consider `[N-]=[N+]=[N-]` [N3^-, azide], for which the dissociation constant (Kd) at DaCld(W227F) (pH 7) is 7 ± 0.3 µM; on W156F DaCld (pH 7) it was 34.5 ± 3.1 µM; on WT DaCld (pH 7), 8.3 ± 0.1 µM.
Turning to `c1c[nH]cn1` [Imidazole], the equilibrium dissociation constant (Kd) was 17.5 ± 1.5 µM on DaCld(W227F); 26.6 ± 3.5 µM at W156F DaCld; 9.6 ± 0.3 µM on WT DaCld (pH 7, 100 mM phosphate, 25 °C, ref [16]).
Take `F` [F^-, fluoride]: the Kd is 3800 ± 900 µM on DaCld(W227F) and 15000 ± 1000 µM at WT DaCld (pH 7).
